Laboratory results reported in the supplement of paper PMC10627819.
≈ marks a conversion by molar mass, not a printed value.

What was measured:
S. aureus Newman [1] = assay: fitness (endpoint OD595 vs no drug) (fraction); higher = more growth
Procedure, shortened: (§1)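 With the first reading as background, OD595 was measured every 30 min for 14 h in 384-well plates kept at 37 °C and inoculated at OD595 0.01. TSB, LB Lennox or CY was the medium. Fitness is the optical density at the transition into stationary phase divided by the robust mean of no-drug control wells, with a cap of 1.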

S. pneumoniae D39V [2] = assay: as above
Procedure, shortened: as §1

B. subtilis 168 [3] = assay: as above
Procedure, shortened: as §1

S. aureus DSM 20231 [4] = assay: as above
Procedure, shortened: as §1

S. aureus Newman [5] = assay: Bliss interaction score (quartile over a dose matrix) (fitness difference); higher = more antagonism (negative = synergy)
Procedure, shortened: (§2)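 Each plate was normalised to the robust mean of its own no-drug wells, using OD595 at entry into stationary phase, with values capped at 1. This normalised growth is the fitness value. The Bliss score is the difference between observed and product-expected fitness, with single-drug fitness inferred from the combination data and quartiles taken over technical, biological and donor/recipient replicates.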

S. pneumoniae D39V [6] = assay: as above
Procedure, shortened: as §2

B. subtilis 168 [7] = assay: as above
Procedure, shortened: as §2

S. aureus DSM 20231 [8] = assay: as above
Procedure, shortened: as §2

S. aureus Newman [9] = system: S. aureus Newman
S. pneumoniae D39V [10] = system: S. pneumoniae D39V
B. subtilis 168 [11] = system: B. subtilis 168
S. aureus DSM 20231 [12] = system: S. aureus DSM 20231
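Wherever Bliss interaction score (quartile over a dose matrix) is given: first quartile when negative (synergy) and third quartile when positive (antagonism).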

CN(N=O)C(=O)N[C@@H](C=O)[C@@H](O)[C@H](O)[C@H](O)CO [Streptozotocin] + CC1=C\[C@@H](O)CC(=O)Cc2nc(co2)C(=O)N2CCC=C2C(=O)O[C@H](C(C)C)[C@H](C)/C=C/C(=O)NC\C=C\1 [Virginiamycin M1]
fitness, one replicate
Conditions	first compound 0.15 µg/mL	first compound 0.3 µg/mL	first compound 0.6 µg/mL	first compound 1.2 µg/mL	first compound 2.4 µg/mL	first compound 4.8 µg/mL
B. subtilis 168 [3], partner 0.0625 µg/mL	≥ 1	0.975	0.991	–	–	–
B. subtilis 168 [3], partner 0.125 µg/mL	0.949	0.92	0.944	–	–	–
B. subtilis 168 [3], partner 0.25 µg/mL	≥ 1	≥ 1	0.958	–	–	–
S. aureus DSM 20231 [4], partner 0.5 µg/mL	0.616	0.686	0.581	–	–	–
S. aureus DSM 20231 [4], partner 1 µg/mL	0.61	0.69	0.667	–	–	–
S. aureus Newman [1], partner 0.0625 µg/mL	0.843	0.677	0.491	–	–	–
S. aureus Newman [1], partner 0.125 µg/mL	0.831	0.682	0.504	–	–	–
S. aureus Newman [1], partner 0.25 µg/mL	0.822	0.661	0.53	–	–	–
S. aureus Newman [1], partner 0.5 µg/mL	0.77	0.639	0.55	–	–	–
S. aureus Newman [1], partner 1 µg/mL	0.765	0.672	0.517	–	–	–
S. aureus Newman [1], partner 2 µg/mL	0.748	0.629	0.477	–	–	–
S. pneumoniae D39V [2], partner 0.15 µg/mL	–	–	–	0.913	0.94	0.88
S. pneumoniae D39V [2], partner 0.3 µg/mL	–	–	–	0.848	0.93	0.925

fitness
Conditions	first compound 0.15 µg/mL	first compound 0.3 µg/mL	first compound 0.6 µg/mL	first compound 1.2 µg/mL	first compound 2.4 µg/mL	first compound 4.8 µg/mL
S. aureus DSM 20231 [4], partner 0.0625 µg/mL	0.844	0.791	0.66	–	–	–
S. aureus DSM 20231 [4], partner 0.125 µg/mL	0.88	0.83	0.714	–	–	–
S. aureus DSM 20231 [4], partner 0.25 µg/mL	0.861	0.753	0.681	–	–	–
S. pneumoniae D39V [2], partner 0.5 µg/mL	–	–	–	0.985	0.99	0.981
S. pneumoniae D39V [2], partner 1 µg/mL	–	–	–	0.944	0.966	0.968
S. pneumoniae D39V [2], partner 2 µg/mL	–	–	–	0.935	0.939	0.911

Conditions	Bliss interaction score
B. subtilis 168 [7]	0.0477
S. aureus DSM 20231 [8]	-0.0415
S. aureus Newman [5]	0.0262
S. pneumoniae D39V [6]	-0.0403

Cc1cc(NS(=O)(=O)c2ccc(N)cc2)no1 [Sulfamethoxazol]
Conditions	MIC [µg/mL]
B. subtilis 168 [11]	> 16
S. aureus DSM 20231 [12]	> 16
S. aureus Newman [9]	> 16
S. pneumoniae D39V [10]	16 (≈ 63.2 µM)

fitness
Conditions	B. subtilis 168 [3]	S. aureus DSM 20231 [4]	S. aureus Newman [1]	S. pneumoniae D39V [2]
1 µg/mL	0.975	0.976	0.968	0.954
2 µg/mL	0.948	0.946	0.984	0.984
4 µg/mL	0.915	0.943	0.978	0.987

Cc1cc(NS(=O)(=O)c2ccc(N)cc2)no1 [Sulfamethoxazol] + CC1=C\[C@@H](O)CC(=O)Cc2nc(co2)C(=O)N2CCC=C2C(=O)O[C@H](C(C)C)[C@H](C)/C=C/C(=O)NC\C=C\1 [Virginiamycin M1]
fitness
Conditions	first compound 1 µg/mL	first compound 2 µg/mL	first compound 4 µg/mL
B. subtilis 168 [3], partner 0.0625 µg/mL	0.887	0.905	0.901
B. subtilis 168 [3], partner 0.125 µg/mL	0.878	0.876	0.901
B. subtilis 168 [3], partner 0.25 µg/mL	0.983	0.919	0.993
S. aureus DSM 20231 [4], partner 0.0625 µg/mL	≥ 1	≥ 1	0.964
S. aureus DSM 20231 [4], partner 0.125 µg/mL	≥ 1	0.995	0.955
S. aureus DSM 20231 [4], partner 0.25 µg/mL	0.944	0.971	0.95
S. aureus Newman [1], partner 0.0625 µg/mL	≥ 1	≥ 1	≥ 1
S. aureus Newman [1], partner 0.125 µg/mL	≥ 1	≥ 1	≥ 1
S. aureus Newman [1], partner 0.25 µg/mL	≥ 1	≥ 1	≥ 1
S. pneumoniae D39V [2], partner 0.5 µg/mL	0.992	0.99	0.928
S. pneumoniae D39V [2], partner 1 µg/mL	0.988	0.986	0.917
S. pneumoniae D39V [2], partner 2 µg/mL	0.906	0.93	0.925

one replicate
Conditions	fitness
B. subtilis 168 [3], first compound 0.5 µg/mL, partner 0.0625 µg/mL	0.982
B. subtilis 168 [3], first compound 0.5 µg/mL, partner 0.125 µg/mL	0.928
B. subtilis 168 [3], first compound 0.5 µg/mL, partner 0.25 µg/mL	≥ 1
S. aureus DSM 20231 [4], first compound 1 µg/mL, partner 0.5 µg/mL	0.88
S. aureus DSM 20231 [4], first compound 1 µg/mL, partner 1 µg/mL	0.709
S. aureus DSM 20231 [4], first compound 2 µg/mL, partner 0.5 µg/mL	0.915
S. aureus DSM 20231 [4], first compound 2 µg/mL, partner 1 µg/mL	0.679
S. aureus DSM 20231 [4], first compound 4 µg/mL, partner 0.5 µg/mL	0.797
S. aureus DSM 20231 [4], first compound 4 µg/mL, partner 1 µg/mL	0.8
S. aureus Newman [1], first compound 1 µg/mL, partner 0.5 µg/mL	0.873
S. aureus Newman [1], first compound 1 µg/mL, partner 1 µg/mL	0.869
S. aureus Newman [1], first compound 1 µg/mL, partner 2 µg/mL	0.841
S. aureus Newman [1], first compound 2 µg/mL, partner 0.5 µg/mL	0.911
S. aureus Newman [1], first compound 2 µg/mL, partner 1 µg/mL	0.925
S. aureus Newman [1], first compound 2 µg/mL, partner 2 µg/mL	0.809
S. aureus Newman [1], first compound 4 µg/mL, partner 0.5 µg/mL	0.956
S. aureus Newman [1], first compound 4 µg/mL, partner 1 µg/mL	0.908
S. aureus Newman [1], first compound 4 µg/mL, partner 2 µg/mL	0.839
S. aureus Newman [1], first compound 8 µg/mL, partner 0.0625 µg/mL	0.905
S. aureus Newman [1], first compound 8 µg/mL, partner 0.125 µg/mL	0.921
S. aureus Newman [1], first compound 8 µg/mL, partner 0.25 µg/mL	0.945
S. pneumoniae D39V [2], first compound 1 µg/mL, partner 0.15 µg/mL	0.905
S. pneumoniae D39V [2], first compound 1 µg/mL, partner 0.3 µg/mL	0.895
S. pneumoniae D39V [2], first compound 2 µg/mL, partner 0.15 µg/mL	0.923
S. pneumoniae D39V [2], first compound 2 µg/mL, partner 0.3 µg/mL	0.902
S. pneumoniae D39V [2], first compound 4 µg/mL, partner 0.15 µg/mL	0.92
S. pneumoniae D39V [2], first compound 4 µg/mL, partner 0.3 µg/mL	0.913

Conditions	Bliss interaction score
B. subtilis 168 [7]	0.0577
S. aureus DSM 20231 [8]	0.0829
S. aureus Newman [5]	0.0283
S. pneumoniae D39V [6]	-0.05

CC[C@H]1OC(=O)[C@H](C)C(=O)[C@H](C)[C@@H](O[C@@H]2O[C@H](C)C[C@H](N(C)C)[C@H]2O)[C@](C)(OC)C[C@@H](C)C(=O)[C@H](C)[C@H]2N(CCCCn3cnc(-c4cccnc4)c3)C(=O)O[C@]12C [Telithromycin]
Conditions	MIC [µg/mL]
S. aureus DSM 20231 [12]	0.15 (≈ 0.185 µM)
S. aureus Newman [9]	0.15 (≈ 0.185 µM)
S. pneumoniae D39V [10]	0.04 (≈ 0.0493 µM)

Oc1cc(Cl)ccc1Oc1ccc(Cl)cc1Cl [Triclosan]
Conditions	MIC [µg/mL]
S. aureus DSM 20231 [12]	0.08 (≈ 0.276 µM)
S. pneumoniae D39V [10]	16 (≈ 55.3 µM)

CC1=C\[C@@H](O)CC(=O)Cc2nc(co2)C(=O)N2CCC=C2C(=O)O[C@H](C(C)C)[C@H](C)/C=C/C(=O)NC\C=C\1 [Virginiamycin M1]
Conditions	MIC [µg/mL]
B. subtilis 168 [11]	0.5 (≈ 0.951 µM)
S. aureus Newman [9]	2 (≈ 3.81 µM)
S. pneumoniae D39V [10]	4 (≈ 7.61 µM)

fitness
Conditions	0.0625 µg/mL	0.125 µg/mL	0.25 µg/mL	0.5 µg/mL	1 µg/mL	2 µg/mL
B. subtilis 168 [3]	0.956	0.943	0.959	–	–	–
S. aureus DSM 20231 [4]	0.994	≥ 1	≥ 1	–	–	–
S. aureus Newman [1]	0.989	1	≥ 1	–	–	–
S. pneumoniae D39V [2]	–	–	–	≥ 1	0.997	0.994
